The text below walks through data of ChEMBL document CHEMBL1201862, “PubChem BioAssay data set” (2004).

Among the test systems are PC-3; T47D; Hs-578T; MDA-MB-231; SNB-78.
Holding throughout (assay): DTP human tumour cell line panel, 48 h

Structures are written as SMILES.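 Following 48 hours of exposure in 96-well plates, responses at five concentrations were used to interpolate endpoints linearly. GI50 is the concentration that inhibits growth by half.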 The source made the active and inactive calls. Cut-off read from the data, not from the text of the source: active = GI50 up to about 1.1 µM and inactive = higher. Residues, ends and D or L forms follow the SMILES beside them. *: point of attachment. Boc = CC(C)(C)OC(=O)*

Consider `S=C(N/N=C/c1ccccn1)N1CCCCCC1`, for which the GI50 (commonly the concentration at which growth is held to half of that of the control) in the test on PC-3 was < 0.01 µM (active); with T47D, < 0.01 µM (active); with Hs-578T, 11.5 µM (inactive); with MDA-MB-231 it was < 0.01 µM (active).
`Fc1cccc(C2ON=C(c3ccccc3)N2C23CC4CC(CC(C4)C2)C3)c1` (stereo not drawn): the GI50 with PC-3, with T47D, with Hs-578T and in the test on MDA-MB-231 was > 10 µM (inactive) throughout.
For `O=C1O/C(=C\c2ccc(O)cc2)C(c2ccc(O)c(Cl)c2)=C1Br`, the GI50 in the test on PC-3 was 6.47 µM (inactive); in the test on T47D, 17.7 µM (inactive); with Hs-578T, 11.6 µM (inactive); with MDA-MB-231, 21.8 µM (inactive).
The like results for `CCOc1cc(C=O)ccc1O` [ETHYL VANILLIN] were, in that order, > 100 µM (inactive), > 100 µM (inactive), > 100 µM (inactive) and > 100 µM (inactive).
Turning to `CC(=O)c1cc2sc3ccccc3c2[nH]1`, the GI50 in the test with PC-3, in the test on T47D and in the test on MDA-MB-231 was > 100 µM (inactive) throughout.
With `O=c1cnnc2sc(=S)[nH]n12`, the GI50 in the test with PC-3 was 26.7 µM (inactive); in the test with Hs-578T, 2.22 µM (inactive).
Turning to `COC(CC1(/C=C/O[Si](C(C)C)(C(C)C)C(C)C)C(=O)N(COCC[Si](C)(C)C)c2ccccc21)OC` (stereo not drawn), the GI50 with PC-3 is 22.1 µM (inactive); in the test with T47D, > 100 µM (inactive); in the test with Hs-578T, > 100 µM (inactive); in the test on MDA-MB-231 it was 21.1 µM (inactive).
For `Cc1cc(C)c(S(=O)(=O)N(CCCCCCN)OCCCN)c(C)c1`, the GI50 with PC-3 was 14.6 µM (inactive); with T47D it was 17.7 µM (inactive); in the test on Hs-578T it was 13.8 µM (inactive); with MDA-MB-231, 10.7 µM (inactive).
Regarding `COC(=O)c1cc2c3c(cc(N(C)C)c2[nH]1)N(C(=O)c1cc2cc(OC)c(OC)c(OC)c2[nH]1)CC3CCl` (stereo not drawn), the results for the GI50 with PC-3, in the test with T47D and with MDA-MB-231 were 0.00366 µM (active), < 0.0025 µM (active) and 0.00419 µM (active), respectively.
Regarding `COc1cc(OC)nc(-n2c(N)c(C(=O)O)c3ccc([N+](=O)[O-])cc3c2=O)n1`, the GI50 in the test on PC-3, in the test with T47D, in the test with Hs-578T and in the test with MDA-MB-231 was > 100 µM (inactive) in each case.
With `COc1ccc(/C=C2/SC(c3ccccc3)N(NC(=O)CCCCCCCCC(=O)NN3C(=O)/C(=C\c4ccc(OC)c(OC)c4)SC3c3ccccc3)C2=O)cc1OC` (stereo not drawn), the GI50 in the test on PC-3 was 76 µM (inactive); in the test on T47D, 35.6 µM (inactive); with MDA-MB-231, 74.6 µM (inactive).
Consider `COC(=O)C1OC2(CCCC3CC32)O[C@H]1C(=O)OC` (stereo partly drawn), for which the GI50 in the test with PC-3, in the test with Hs-578T and in the test with MDA-MB-231 was > 100 µM (inactive) each time.
As to `C/C(=N\NC(=O)c1ccncc1)c1sc(-n2nc(-c3ccccc3)cc2-c2ccccc2)nc1C`, the GI50 was > 31.6 µM (inactive) with PC-3, 18.5 µM (inactive) in the test on T47D, > 74.3 µM (inactive) in the test with Hs-578T and > 63 µM (inactive) with MDA-MB-231.
The like results for `CCN(CC)CCNC(=O)c1cc2cc(NC(=O)c3cc4cc(NC(=O)c5cc6cc(N)ccc6[nH]5)ccc4[nH]3)ccc2[nH]1` were, in that order, > 100 µM (inactive), > 100 µM (inactive), > 100 µM (inactive) and > 100 µM (inactive).
Turning to `O=C1OC(=O)c2c1cc1cc3c(cc1c2-c1ccc2c(c1)OCO2)OCO3`, the GI50 with PC-3, in the test with T47D and with MDA-MB-231 was > 100 µM (inactive) in each case.
With `CC(C)(C)OC(=O)NC(CSSCC(NC(=O)OC(C)(C)C)C(=O)O)C(=O)O` (stereo not drawn), the GI50 in the test on PC-3, in the test on T47D, in the test with Hs-578T and with MDA-MB-231 was > 100 µM (inactive) each time.
On to `CC(C)C1(O)C(=O)N(c2c(F)c(F)c(F)c(F)c2F)C(=S)N1CCSc1ccccc1` (stereo not drawn), for which the GI50 in the test on PC-3 is 15.7 µM (inactive); in the test on T47D it was 16.2 µM (inactive); in the test with Hs-578T, 22.6 µM (inactive); in the test with MDA-MB-231, 13.1 µM (inactive).
The like results for `O=C(NNC(=O)c1ccccc1O)c1ccc(O)cc1` were, in that order, 37.6 µM (inactive), > 100 µM (inactive), > 100 µM (inactive) and 10.2 µM (inactive).
Taken in the same sequence, the figures for `CC(C)C(=O)Nc1cc(C(F)(F)F)ccc1[N+](=O)[O-]` were > 100 µM (inactive), 81.5 µM (inactive), > 100 µM (inactive) and > 100 µM (inactive).
The like results for `O=C1c2ccccc2C(=O)c2c1sc1nc3ccccc3n21` were, in that order, 2.64 µM (inactive), 1.83 µM (inactive), 0.0239 µM (active) and 2.02 µM (inactive).
Regarding `CC1CCC2C(C(=O)O[C@H]3C4CCO[C@@H](OC5OC(CO)C(O)C(O)C5O)C4[C@@]4(CO)O[C@@H]34)=CO[C@@H](OC3OC(CO)C(O)C(O)C3O)C12` (stereo partly drawn), the GI50 in the test on PC-3, in the test on T47D, with Hs-578T and in the test on MDA-MB-231 was > 10 µM (inactive) in each case.
Regarding `CCCCCCCCCCCCCCCCP(=O)([O-])OCC[N+](C)(C)C`, the GI50 with PC-3 is 1.71 µM (inactive); with T47D, 17.6 µM (inactive); in the test with Hs-578T, 15.8 µM (inactive); with MDA-MB-231 it was 20.5 µM (inactive).
The like results for `Fc1ccc(C(OCCN2CCN(CCCc3ccccc3)CC2)c2ccc(F)cc2)cc1` were, in that order, 3.44 µM (inactive), 4.9 µM (inactive), 3.26 µM (inactive) and 3.15 µM (inactive).
`CC(NC(=O)C(NC(=O)OC(C)(C)C)C(C)C)C(=O)N1CCCC1C(=O)NCC(=O)NC(C(=O)NCC(=O)O)C(C)C` (stereo not drawn) (Boc-VAPGVG-OH; configuration not given here): the GI50 was > 100 µM (inactive) in the test with PC-3, > 100 µM (inactive) in the test with T47D and 92.3 µM (inactive) in the test with MDA-MB-231.
Regarding `O=C1c2cccc3cccc(c23)C(=O)N1O`, the GI50 was 76.2 µM (inactive) in the test with PC-3, > 100 µM (inactive) with T47D, 53 µM (inactive) in the test on Hs-578T and > 100 µM (inactive) in the test on MDA-MB-231.
Take `C[C@]12CCC(=O)C=C1CC[C@@H]1[C@@H]2[C@@H](O)C[C@@]2(C)[C@H]1CC[C@]2(O)C(=O)COC(=O)C1CCCC1`: the GI50 in the test on PC-3, in the test on T47D, in the test on Hs-578T and in the test on MDA-MB-231 was > 100 µM (inactive) in each case.
`O=c1sc(Nc2ccc3ccccc3c2Cl)nc2ccccc12`: the GI50 in the test on PC-3 was > 100 µM (inactive); in the test with T47D, > 100 µM (inactive); in the test with Hs-578T, 57.1 µM (inactive); in the test with MDA-MB-231, > 100 µM (inactive).
With `CN(C)CN1C(=O)/C(=N\n2c(S)nnc2-c2ccncc2)c2ccccc21`, the GI50 in the test on PC-3 was 35.6 µM (inactive); in the test on T47D it was 30.8 µM (inactive); in the test on Hs-578T, 42.5 µM (inactive); in the test with MDA-MB-231, > 100 µM (inactive).
Regarding `Cc1c(N2C(=O)/C(=C/c3ccc(Cl)cc3)N=C2c2ccccc2)c(=O)n(-c2ccccc2)n1C`, the GI50 was 33.9 µM (inactive) in the test with PC-3, 29.6 µM (inactive) with T47D and 33.8 µM (inactive) in the test on MDA-MB-231.
In the case of `N#CC(=S)Nc1ccc(F)cc1`, the GI50 was 57.7 µM (inactive) in the test with PC-3, 24 µM (inactive) with T47D and > 100 µM (inactive) in the test on MDA-MB-231.
As for `COc1cc(/C=C/C(=O)CC(=O)/C=C/c2ccc(O)c(OC)c2)ccc1O` [CURCUMIN], the GI50 with PC-3 is 8.79 µM (inactive); in the test on T47D it was 8.36 µM (inactive); in the test on Hs-578T it was 10.9 µM (inactive); in the test on MDA-MB-231 it was 17.8 µM (inactive).
The like results for `O=c1ccn(C2OC(COC3CCCCO3)C(OC3CCCCO3)C2OC2CCCCO2)c(=O)n1-c1ccccc1` (stereo not drawn) were, in that order, > 100 µM (inactive), > 100 µM (inactive), > 100 µM (inactive) and > 100 µM (inactive).
Taken in the same sequence, the figures for `CCOC(=O)C(NC(=O)c1cccc(Cl)c1)(Nc1ccc(S(=O)(=O)Nc2cc(C)on2)cc1)C(F)(F)F` (stereo not drawn) were > 100 µM (inactive), > 100 µM (inactive), > 100 µM (inactive) and > 100 µM (inactive).
Taken in the same sequence, the figures for `CCOC(=O)/C=C(\C(=O)OCC)n1ccc(=O)n(Cc2cnnn2CCCCOC(C)=O)c1=O` were 9.4 µM (inactive), 4.07 µM (inactive), 16.3 µM (inactive) and 15.2 µM (inactive).
For `CO[C@H]1c2cccc3cccc(c23)[C@@H]1n1[nH]c(=O)n(C(C)(C)C)c1=O`, the GI50 with PC-3, with T47D, with Hs-578T and in the test on MDA-MB-231 was > 100 µM (inactive) throughout.
On to `COc1ccc(CC2(O)C3CC4CCC2C4C3)cc1` (stereo not drawn), for which the GI50 in the test with PC-3 was 39.2 µM (inactive); in the test with Hs-578T, 85.3 µM (inactive).
As for `COC(=O)c1s/c(=N\C(=S)N(C)C)n(-c2ccccc2)c1C(=O)OC`, the GI50 with SNB-78 was > 100 µM (inactive).
Take `CCCCCCCCCCCCOCCOCCOCCOCCOCCOCC(=O)NC(Cc1ccccc1)C(=O)Oc1ccc([N+](=O)[O-])cc1` (stereo not drawn): the GI50 in the test on PC-3 is 31 µM (inactive); in the test on T47D it was 40 µM (inactive); with Hs-578T, 41.2 µM (inactive); in the test with MDA-MB-231 it was 60.3 µM (inactive).
On to `O=C(CCC(=O)OCC1OC(O)(CC2OC(CO)C(O)C(O)C2O)C(O)C1O)OCc1ccccc1` (stereo not drawn), for which the GI50 in the test on PC-3, with T47D, with Hs-578T and in the test on MDA-MB-231 was > 100 µM (inactive) in each case.
Consider `O=C(Nc1ccn(C2CC(O)C(COC(c3ccccc3)(c3ccccc3)c3ccccc3)O2)c(=O)n1)c1ccccc1` (stereo not drawn), for which the GI50 was 2.43 µM (inactive) in the test on PC-3, 4.46 µM (inactive) with T47D, 2.31 µM (inactive) in the test with Hs-578T and 3.05 µM (inactive) in the test on MDA-MB-231.
The like results for `COc1cccc(C(=O)C#Cc2cnc(OC)nc2OC)c1` were, in that order, 1.37 µM (inactive), 1.83 µM (inactive), 7.66 µM (inactive) and 3.41 µM (inactive).
The like results for `COC(=O)[C@]1(C)CCCn2c(=O)n(-c3ccccc3)c(=O)n21` were, in that order, > 100 µM (inactive), > 100 µM (inactive), > 100 µM (inactive) and > 100 µM (inactive).
